From patent US7514448B2, “Azaindoles useful as inhibitors of rock and other protein kinases” (Vertex Pharmaceuticals Incorporated, priority 2004, dated 2009)

Legend:
[1] = target: PKA (Homo sapiens, UniProt P17612); experiment: PKA inhibition assay, coupled enzyme; type: biochemical; settings: average Ki if more than one determined
Description: Compounds were screened for their ability to inhibit PKA using a standard coupled enzyme assay (Fox et al., Protein Sci, 1998, 7, 2249). Assays were carried out in a mixture of 100 mM HEPES (pH 7.5), 10 mM MgCl2, 25 mM NaCl, 1 mM DTT and 3% DMSO. Final substrate concentrations in the assay were 50 μM ATP (Sigma Chemicals) and 80 μM peptide (Kemptide, American Peptide, Sunnyvale, Calif.). Assays were carried out at 30° C. and 18 nM PKA. Final concentrations of the components of the coupled enzyme system were 2.5 mM phosphoenolpyruvate, 300 μM NADH, 30 μg/ml pyruvate kinase and 10 μg/ml lactate dehydrogenase.
An assay stock buffer solution was prepared containing all of the reagents listed above, with the exception of ATP, and the test compound of the present invention. […] The plate was preincubated for 10 minutes at 30° C. and the reaction initiated by addition of 5 μl of ATP (final concentration 50 μM). Initial reaction rates were determined with a Molecular Devices SpectraMax Plus plate reader over a 15 minute time course. IC50 and Ki data were calculated from non-linear regression analysis using the Prism software package (GraphPad Prism version 3.0a for Macintosh, GraphPad Software, San Diego Calif., USA).

[2] = target: ROCK I (AA 6-553) (Homo sapiens, UniProt Q13464); experiment: ROCK inhibition assay, coupled enzyme system ("Enzyme"); type: biochemical; settings: enzyme-linked assay; average Ki if more than one determined
Chain of ROCK I (AA 6-553) (Q13464 6-553, species assumed): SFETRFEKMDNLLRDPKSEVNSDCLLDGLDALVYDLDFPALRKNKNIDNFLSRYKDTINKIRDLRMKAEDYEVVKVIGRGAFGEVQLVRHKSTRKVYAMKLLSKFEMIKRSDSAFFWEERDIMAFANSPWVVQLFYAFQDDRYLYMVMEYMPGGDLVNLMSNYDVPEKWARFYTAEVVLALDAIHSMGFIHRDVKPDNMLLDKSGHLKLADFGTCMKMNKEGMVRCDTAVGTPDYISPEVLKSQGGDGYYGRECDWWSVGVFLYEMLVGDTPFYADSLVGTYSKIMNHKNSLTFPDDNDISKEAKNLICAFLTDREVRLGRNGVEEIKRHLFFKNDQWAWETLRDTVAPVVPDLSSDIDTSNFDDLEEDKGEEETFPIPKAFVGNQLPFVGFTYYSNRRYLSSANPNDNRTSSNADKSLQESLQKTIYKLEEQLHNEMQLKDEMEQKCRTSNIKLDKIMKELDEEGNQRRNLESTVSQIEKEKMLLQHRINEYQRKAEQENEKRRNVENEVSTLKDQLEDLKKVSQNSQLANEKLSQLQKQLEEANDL
Description: Reactions were carried out in a solution containing 100 mM HEPES (pH 7.5), 10 mM MgCl2, 25 mM NaCl, 2 mM DTT and 1.5% DMSO.
If more than one value of Ki has been determined, the average Ki is indicated. If no value is indicated, then the Ki was not determined.

Row | SMILES | Ki [1] [nM] | Ki [2] [nM]
1 | COc1cccc(CC(=O)Nc2nc(-c3c[nH]c4nccc(F)c34)cs2)c1 [II-19] | < 500 | < 500
2 | O=C(Cc1cc2c(cc1Cl)OCO2)Nc1nc(-c2c[nH]c3nccc(F)c23)cs1 [II-20] | < 500 | < 500
3 | COc1cccc(CC(=O)Nc2cc(-c3c[nH]c4ncccc34)cs2)c1 [II-23] | < 500 | < 500
4 | CCN(CC)S(=O)(=O)c1cccc(CC(=O)Nc2nc(-c3c[nH]c4ncccc34)cs2)c1 [II-24] | 500 to 5000 | < 500
5 | O=C(Cc1cccc(S(=O)(=O)N2CCNCC2)c1)Nc1nc(-c2c[nH]c3ncccc23)cs1 [II-25] | < 500 | < 500
6 | O=C(Cc1cccc(S(=O)(=O)N2CCOCC2)c1)Nc1nc(-c2c[nH]c3ncccc23)cs1 [II-26] | 500 to 5000 | < 500
7 | CS(=O)(=O)Nc1cccc(CC(=O)N(c2nc(-c3c[nH]c4ncccc34)cs2)C2CC2)c1 [II-27] | < 500 | < 500
8 | O=C(NCc1ccc(F)cc1F)c1ccc(-c2c[nH]c3ncccc23)s1 [II-28] | < 500 | < 500
9 | O=C(NCc1ccccc1)c1ccc(-c2c[nH]c3ncccc23)s1 [II-29] | < 500 | < 500
10 | COc1cccc(CNC(=O)c2ccc(-c3c[nH]c4ncccc34)s2)c1 [II-30] | < 500 | < 500
11 | O=C(NCCc1ccccc1)c1ccc(-c2c[nH]c3ncccc23)s1 [II-31] | < 500 | < 500
12 | O=C(NCCc1cccc(F)c1)c1ccc(-c2c[nH]c3ncccc23)s1 [II-32] | < 500 | < 500
13 | CS(=O)(=O)Nc1cccc(CC(=O)Nc2cc(-c3c[nH]c4ncccc34)cs2)c1 [II-33] | < 500 | < 500
14 | Nc1ccc(CC(=O)Nc2nc(-c3c[nH]c4ncccc34)cs2)c(Cl)c1 [II-34] | < 500 | < 500
15 | CCS(=O)(=O)Nc1ccc(CC(=O)Nc2nc(-c3c[nH]c4ncccc34)cs2)c(Cl)c1 [II-35] | 500 to 5000 | < 500
16 | O=C(Cc1cccc(OCCCN2CCNCC2)c1)Nc1nc(-c2c[nH]c3nccc(F)c23)cs1 [II-36] | 500 to 5000 | < 500
17 | CN1CCN(CCCOc2cccc(CC(=O)Nc3nc(-c4c[nH]c5nccc(F)c45)cs3)c2)CC1 [II-37] | 500 to 5000 | < 500
18 | O=C(Cc1cccc(OCCCn2ccnc2)c1)Nc1nc(-c2c[nH]c3nccc(F)c23)cs1 [II-38] | 500 to 5000 | < 500
19 | NC(=O)c1cccc(CC(=O)Nc2nc(-c3c[nH]c4ncccc34)cs2)c1 [II-41] | < 500 | < 500
20 | O=C(Cc1cccc(S(=O)(=O)N[C@H]2CCOC2)c1)Nc1nc(-c2c[nH]c3ncccc23)cs1 [II-42] | < 500 | < 500
21 | CC(=O)N1[C@H](C)CN(c2nc(-c3c[nH]c4ncc(Cl)cc34)cs2)C[C@@H]1C [II-43] | 500 to 5000 | 500 to 5000

Row | SMILES | Ki [1] [nM] | Ki [2] [nM]
22 | O=C(Cc1ccccc1F)N(c1nc(-c2c[nH]c3ncccc23)cs1)C1CC1 [II-44] | < 500 | < 500
23 | O=C(Cc1ccc(F)cc1F)N(c1nc(-c2c[nH]c3ncccc23)cs1)C1CC1 [II-45] | < 500 | < 500
24 | CS(=O)(=O)Nc1cccc(CC(=O)Nc2csc(-c3c[nH]c4ncccc34)n2)c1 [II-46] | < 500 | < 500
25 | CS(=O)(=O)Nc1ccc(CC(=O)Nc2nc(-c3c[nH]c4ncccc34)cs2)c(Cl)c1 [II-47] | < 500 | < 500
26 | CC(C)S(=O)(=O)Nc1ccc(CC(=O)Nc2nc(-c3c[nH]c4ncccc34)cs2)c(Cl)c1 [II-48] | < 500 | < 500
27 | CN1CCCN(S(=O)(=O)c2cccc(CC(=O)Nc3nc(-c4c[nH]c5ncccc45)cs3)c2)CC1 [II-52] | < 500 | < 500
28 | COc1cccc(CC(=O)Nc2csc(-c3c[nH]c4ncccc34)n2)c1 [II-55] | < 500 | < 500
29 | O=C(Cc1ccc(F)cc1F)Nc1csc(-c2c[nH]c3ncccc23)n1 [II-56] | < 500 | < 500
30 | O=C(Cc1cccc(S(=O)(=O)N2CCOCC2)c1)Nc1csc(-c2c[nH]c3ncccc23)n1 [II-57] | 500 to 5000 | < 500
31 | O=C(Cc1cccc(S(=O)(=O)N2CCOCC2)c1)Nc1nnc(-c2c[nH]c3ncccc23)s1 [II-58] | 500 to 5000 | 500 to 5000
32 | O=C(Cc1cccc(S(=O)(=O)N2CCOCC2)c1)Nc1cc(-c2c[nH]c3ncccc23)cs1 [II-59] | < 500 | < 500
33 | O=C(Cc1ccccc1F)Nc1csc(-c2c[nH]c3ncccc23)n1 [II-60] | < 500 | < 500
34 | O=C(Cc1ccc(F)cc1)Nc1csc(-c2c[nH]c3ncccc23)n1 [II-61] | < 500 | < 500
35 | O=C(Cc1ccccc1)Nc1csc(-c2c[nH]c3ncccc23)n1 [II-62] | < 500 | < 500
36 | CCN(CC)S(=O)(=O)c1cccc(CC(=O)Nc2csc(-c3c[nH]c4ncccc34)n2)c1 [II-63] | 500 to 5000 | < 500
37 | CCN(CC)S(=O)(=O)c1cccc(CC(=O)Nc2nnc(-c3c[nH]c4ncccc34)s2)c1 [II-64] | 500 to 5000 | 500 to 5000
38 | O=C(NCc1cccc(S(=O)(=O)N2CCOCC2)c1)c1ccc(-c2c[nH]c3ncccc23)s1 [II-65] | < 500 | < 500
39 | O=C(Cc1cccc(S(=O)(=O)N2CCOCC2)c1)Nc1nc(-c2c[nH]c3nccc(F)c23)cs1 [II-66] | 500 to 5000 | < 500
40 | CCN(CC)S(=O)(=O)c1cccc(CC(=O)Nc2nc(-c3c[nH]c4nccc(F)c34)cs2)c1 [II-67] | 500 to 5000 | < 500
41 | O=C(Cc1cccc(O)c1)N(c1nc(-c2c[nH]c3ncccc23)cs1)C1CC1 [II-68] | < 500 | < 500
42 | O=C(Cc1ccc2c(c1)OCO2)N(c1nc(-c2c[nH]c3ncccc23)cs1)C1CC1 [II-69] | < 500 | < 500

Row | SMILES | Ki [1] [nM] | Ki [2] [nM]
43 | COc1cccc(CC(=O)N(c2nc(-c3c[nH]c4ncccc34)cs2)C2CC2)c1 [II-70] | < 500 | < 500
44 | COc1cccc(CNC(=O)c2cc(-c3c[nH]c4ncccc34)cs2)c1 [II-71] | < 500 | < 500
45 | O=C(Cc1cccc(S(=O)(=O)NCC2CCCO2)c1)Nc1nc(-c2c[nH]c3ncccc23)cs1 (stereo not drawn) [II-72] | < 500 | < 500
46 | CS(=O)(=O)c1ccc(CC(=O)N(c2nc(-c3c[nH]c4ncccc34)cs2)C2CC2)cc1 [II-73] | 500 to 5000 | < 500
47 | CS(=O)(=O)c1ccc(CC(=O)Nc2nc(-c3c[nH]c4ncccc34)cs2)cc1 [II-74] | 500 to 5000 | < 500
48 | COc1ccc(CC(=O)N(c2nc(-c3c[nH]c4ncccc34)cs2)C2CC2)c(Cl)c1 [II-75] | < 500 | < 500
49 | O=C(Cc1cccc(OCCCC2CCNCC2)c1)N(c1nc(-c2c[nH]c3ncccc23)cs1)C1CC1 [II-76] | 500 to 5000 | < 500
50 | COc1cccc(CC(=O)Nc2nc(-c3c[nH]c4ncc(Br)cc34)cs2)c1 [II-77] | 500 to 5000 | < 500
51 | CS(=O)(=O)Nc1cccc(CC(=O)Nc2nc(-c3c[nH]c4ncc(Br)cc34)cs2)c1 [II-78] | 500 to 5000 | < 500
52 | O=C(NCc1cccc(S(=O)(=O)N2CCOCC2)c1)c1cc(-c2c[nH]c3ncccc23)cs1 [II-80] | 500 to 5000 | < 500
53 | O=C(Nc1csc(-c2c[nH]c3ncccc23)n1)c1ccccc1 [II-81] | 500 to 5000 | < 500
54 | CS(=O)(=O)Nc1ccc(F)c(CC(=O)Nc2nc(-c3c[nH]c4ncccc34)cs2)c1 [II-82] | < 500 | < 500
55 | O=C(Cc1cccc(OCCCN2CCNCC2)c1)N(c1nc(-c2c[nH]c3ncccc23)cs1)C1CC1 [II-83] | 500 to 5000 | < 500
56 | CN1CCN(CCCOc2cccc(CC(=O)N(c3nc(-c4c[nH]c5ncccc45)cs3)C3CC3)c2)CC1 [II-84] | 500 to 5000 | < 500
57 | O=C(Cc1cccc(OCCN2CCNCC2)c1)N(c1nc(-c2c[nH]c3ncccc23)cs1)C1CC1 [II-85] | < 500 | < 500
58 | CN1CCN(CCOc2cccc(CC(=O)N(c3nc(-c4c[nH]c5ncccc45)cs3)C3CC3)c2)CC1 [II-86] | 500 to 5000 | < 500
59 | O=C(Cc1cccc(S(=O)(=O)N2CCOCC2)c1)N(c1nc(-c2c[nH]c3ncccc23)cs1)C1CC1 [II-87] | < 500 | < 500
60 | O=C(Cc1cc2c(cc1Cl)OCO2)N(c1nc(-c2c[nH]c3ncccc23)cs1)C1CC1 [II-88] | < 500 | < 500
61 | CC(C)N1CCN(S(=O)(=O)c2cccc(CC(=O)Nc3nc(-c4c[nH]c5ncccc45)cs3)c2)CC1 [II-89] | 500 to 5000 | < 500
62 | CN(C)CCN(C)S(=O)(=O)c1cccc(CC(=O)Nc2nc(-c3c[nH]c4ncccc34)cs2)c1 [II-90] | < 500 | < 500
63 | O=C(Cc1ccccc1)Nc1nc(-c2c[nH]c3nccc(Cl)c23)cs1 [II-91] | < 500 | < 500
